What follows are molecules tested against human TrkA receptor (Homo sapiens (Human), UniProt P04629) (assay: DiscoverX PathHunter TrkA functional assay (NGF-stimulated U2OS cells)). Conditions: U2OS cells expressing human TrkA-PK, Shc1-EA and p75NTR; compound 1 h, then NGF at ~80% of maximal response for 3 h; luminescence.
Assay type: cell-based

human TrkA receptor, sequence (P04629 33-796): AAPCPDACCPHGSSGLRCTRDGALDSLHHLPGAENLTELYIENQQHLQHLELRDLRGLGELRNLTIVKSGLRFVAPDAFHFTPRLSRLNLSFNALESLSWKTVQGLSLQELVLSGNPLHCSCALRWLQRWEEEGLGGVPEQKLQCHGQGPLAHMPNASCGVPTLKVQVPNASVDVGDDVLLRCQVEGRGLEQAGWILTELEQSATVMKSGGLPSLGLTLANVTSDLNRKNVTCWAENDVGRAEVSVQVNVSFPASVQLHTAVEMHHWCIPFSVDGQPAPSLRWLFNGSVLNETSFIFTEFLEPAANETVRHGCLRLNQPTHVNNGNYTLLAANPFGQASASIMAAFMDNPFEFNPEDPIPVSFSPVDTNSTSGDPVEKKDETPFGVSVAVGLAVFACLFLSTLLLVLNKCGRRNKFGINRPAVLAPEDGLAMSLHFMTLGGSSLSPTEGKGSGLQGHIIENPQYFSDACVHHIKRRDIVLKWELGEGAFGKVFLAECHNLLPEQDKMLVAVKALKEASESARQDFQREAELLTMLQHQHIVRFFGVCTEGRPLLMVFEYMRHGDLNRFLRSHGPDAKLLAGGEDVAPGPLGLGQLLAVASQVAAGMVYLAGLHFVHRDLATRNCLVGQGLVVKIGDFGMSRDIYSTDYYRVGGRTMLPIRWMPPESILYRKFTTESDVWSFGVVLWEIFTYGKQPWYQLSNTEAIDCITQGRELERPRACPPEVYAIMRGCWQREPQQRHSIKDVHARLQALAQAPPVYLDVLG

| Compound | IC50 |
| --- | --- |
| O=C(Nc1cc(N2CCOCC2)cnc1-c1ccccc1)c1ccc(C(F)(F)F)cc1Cl [Example 1, 2-Chloro-N-(5-morpholino-2-phenylpyridin-3-yl)-4-(trifluoromethyl)benzamide] | 480 nM |
| Cc1ncc(NC(=O)c2cc(-c3ncccn3)c(Cl)cc2F)c(-c2ccccc2)n1 [Example 2, 4-Chloro-2-fluoro-N-(2-methyl-4-phenylpyrimidin-5-yl)-5-(pyrimidin-2-yl)benzamide] | 100 nM |
| Cc1cc(-c2ccccc2)c(NC(=O)c2ccc(OC(F)(F)F)c(-c3ccn(C)n3)c2)cn1 [Example 3, 3-(1-Methyl-1H-pyrazol-3-yl)-N-(6-methyl-4-phenylpyridin-3-yl)-4-(trifluoromethoxy)benzamide] | 54 nM |
| Cc1nc(Cl)c(NC(=O)c2ccc(C(F)(F)F)c(-c3ccn(C)n3)c2)c(-c2ccccc2)n1 [Example 4, N-(4-Chloro-2-methyl-6-phenylpyrimidin-5-yl)-3-(1-methyl-1H-pyrazol-3-yl)-4-(trifluoromethyl)benzamide] | 160 nM |
| Cc1cc(-c2ccccc2)c(NC(=O)c2ccc(C(F)(F)F)c(-c3cc[nH]n3)c2)cn1 [Example 5, N-(6-Methyl-4-phenylpyridin-3-yl)-3-(1H-pyrazol-5-yl)-4-(trifluoromethyl)benzamide] | 14 nM |
| O=C(Nc1ccccc1-c1ccc(F)cc1)c1ccc(C(F)(F)F)cc1F [Example 6, 2-fluoro-N-(4′-fluorobiphenyl-2-yl)-4-(trifluoromethyl)benzamide] | 4900 nM |
| Cc1cc(-c2ccccc2NC(=O)c2cccc(-c3nccs3)c2)n[nH]1 [Example 7, N-[2-(5-methyl-1H-pyrazol-3-yl)phenyl]-3-(1,3-thiazol-2-yl)benzamide] | 4000 nM |
| Cc1ncc(NC(=O)c2ccc(C)c(F)c2F)c(-c2ccccc2)n1 [Example 8, 2,3-difluoro-4-methyl-N-(2-methyl-4-phenylpyrimidin-5-yl)benzamide] | 4300 nM |
| Cc1cc(C)n(-c2ccc(Cl)c(C(=O)Nc3cnc(C)nc3-c3ccccc3)c2)n1 [Example 9, 2-chloro-5-(3,5-dimethyl-1H-pyrazol-1-yl)-N-(2-methyl-4-phenylpyrimidin-5-yl)benzamide] | 140 nM |
| O=C(Nc1cc(-c2cccnc2)cnc1-c1ccccc1)c1ccc(C(F)(F)F)cc1 [Example 10, N-(6-phenyl-3,3′-bipyridin-5-yl)-4-(trifluoromethyl)benzamide] | 1600 nM |
| Cc1cc(-c2ccccc2NC(=O)c2cc(-n3nc(C)cc3C)ccc2Cl)on1 [Example 11, 2-chloro-5-(3,5-dimethyl-1H-pyrazol-1-yl)-N-[2-(3-methylisoxazol-5-yl)phenyl]benzamide] | 7500 nM |
| Cc1ncc(NC(=O)c2ccc(C(F)(F)F)c(-c3cscn3)c2)c(-c2ccccc2)n1 [Example 12, N-(2-methyl-4-phenylpyrimidin-5-yl)-3-(1,3-thiazol-4-yl)-4-(trifluoromethyl)benzamide] | 36 nM |
| Cc1cc(C)n(-c2cc(C(=O)Nc3cnc(C)nc3-c3ccccc3)ccc2F)n1 [Example 13, 3-(3,5-dimethyl-1H-pyrazol-1-yl)-4-fluoro-N-(2-methyl-4-phenylpyrimidin-5-yl)benzamide] | 910 nM |
| Cc1ncc(NC(=O)c2cccc(-n3nccc3C(F)(F)F)c2)c(-c2ccccc2)n1 [Example 14, N-(2-methyl-4-phenylpyrimidin-5-yl)-3-[5-(trifluoromethyl)-1H-pyrazol-1-yl]benzamide] | 590 nM |
| Cc1ncc(NC(=O)c2ccc(C(F)(F)F)c(-n3nccn3)c2)c(-c2ccccc2)n1 [Example 16, N-(2-methyl-4-phenylpyrimidin-5-yl)-3-(2H-1,2,3-triazol-2-yl)-4-(trifluoromethyl)benzamide] | 66 nM |
| Cc1ccn(-c2cc(C(=O)Nc3cnc(C)nc3-c3ccccc3)ccc2C(F)(F)F)n1 [Example 17, N-(2-methyl-4-phenylpyrimidin-5-yl)-3-(3-methyl-1H-pyrazol-1-yl)-4-(trifluoromethyl)benzamide] | 15 nM |
| Cc1cc(-c2nc(C)ncc2NC(=O)c2ccc(C(F)(F)F)c(-c3nc(C)cs3)c2)[nH]n1 [Example 18, N-[2-methyl-4-(3-methyl-1H-pyrazol-5-yl)pyrimidin-5-yl]-3-(4-methyl-1,3-thiazol-2-yl)-4-(trifluoromethyl)benzamide] | 330 nM |
| Cc1cnn(-c2ccncc2NC(=O)c2ccc(C(F)(F)F)c(-c3ccn(C)n3)c2)c1 [Example 19, 3-(1-methyl-1H-pyrazol-3-yl)-N-[4-(4-methyl-1H-pyrazol-1-yl)pyridin-3-yl]-4-(trifluoromethyl)benzamide] | 25 nM |

These reach a lower IC50. Values come first.

| IC50 | Compound |
| --- | --- |
| 5 nM | Cn1ccc(-c2cc(C(=O)Nc3ccc(C4CCNC4=O)nc3-c3ccccc3)ccc2C(F)(F)F)n1 (single isomer, unassigned) [Example 186, (R or S)-3-(1-Methyl-1H-pyrazol-3-yl)-N-(6-(2-oxopyrrolidin-3-yl)-2-phenylpyridin-3-yl)-4-(trifluoromethyl)benzamide] |
| 4.5 nM | Cn1ccc(-c2cc(C(=O)Nc3cnc(CC4CCNC4=O)nc3-c3ccccc3)c(F)cc2C(F)(F)F)n1 (single isomer, unassigned) [Example 191, (R or S)-2-Fluoro-5-(1-methyl-1H-pyrazol-3-yl)-N-(2-(2-oxopyrrolidin-3-yl)methyl)-4-phenylpyrimidin-5-yl)-4-(trifluoromethyl)benzamide] |
| 3.7 nM | Cn1ccc(-c2cc(C(=O)Nc3cnc(C4CCNC4=O)nc3-c3ccccc3)c(F)cc2C(F)(F)F)n1 (single isomer, unassigned) [Example 197, (R or S)-2-Fluoro-5-(1-methyl-1H-pyrazol-3-yl)-N-(2-(2-oxopyrrolidin-3-yl)-4-phenylpyrimidin-5-yl)-4-(trifluoromethyl)benzamide] |
| 3.5 nM | Cn1ccc(-c2cc(C(=O)Nc3cc(C4CCC(=O)N4)cnc3-c3ccccc3)c(F)cc2C(F)(F)F)n1 (single isomer, unassigned) [Example 181, (R or S)-2-Fluoro-5-(1-methyl-1H-pyrazol-3-yl)-N-(5-(5-oxopyrrolidin-2-yl)-2-phenylpyridin-3-yl)-4-(trifluoromethyl)benzamide] |
| 3 nM | Cc1ncc(NC(=O)c2ccc(C(F)(F)F)c(-c3ccn(C)n3)c2)c(-c2ccccc2)n1 [Example 15, N-(2-methyl-4-phenylpyrimidin-5-yl)-3-(1-methyl-1H-pyrazol-3-yl)-4-(trifluoromethyl)benzamide] |
| 2.3 nM | Cn1ccc(-c2cc(C(=O)Nc3ccc(C(O)CO)nc3-c3ccccc3)c(F)cc2C(F)(F)F)n1 (single isomer, unassigned) [Example 192, (R or S)—N-(6-(1,2-Dihydroxyethyl)-2-phenylpyridin-3-yl)-2-fluoro-5-(1-methyl-1H-pyrazol-3-yl)-4-(trifluoromethyl)benzamide] |
| 1.8 nM | CN1CCOC(C(=O)NCc2ccc(NC(=O)c3cc(-c4ccn(C)n4)c(C(F)(F)F)cc3F)c(-c3ccccc3)n2)C1 (single isomer, unassigned) [Example 63, (S or R)-N-((5-(2-fluoro-5-(1-methyl-1H-pyrazol-3-yl)-4-(trifluoromethyl)benzamido)-6-phenylpyridin-2-yl)methyl)-4-methylmorpholine-2-carboxamide] |
| 1.8 nM | Cn1ccc(-c2cc(C(=O)Nc3cnc(CC4NC(=O)NC4=O)nc3-c3ccccc3)ccc2C(F)(F)F)n1 (single isomer, unassigned) [Example 190, (R or S)—N-(2-(2,5-Dioxoimidazolidin-4-yl)methyl)-4-phenylpyrimidin-5-yl)-3-(1-methyl-1H-pyrazol-3-yl)-4-(trifluoromethyl)benzamide] |
| 1.2 nM | Cn1ccc(-c2cc(C(=O)Nc3cnc(CNC(=O)C(C)(N)CO)nc3-c3ccccc3)c(F)cc2C(F)(F)F)n1 (single isomer, unassigned) [Example 66, (S or R)-N-(2-((2-amino-3-hydroxy-2-methylpropanamido)methyl)-4-phenylpyrimidin-5-yl)-2-fluoro-5-(1-methyl-1H-pyrazol-3-yl)-4-(trifluoromethyl)benzamide] |
| 0.79 nM | Cn1ccc(-c2cc(C(=O)Nc3ccc(CNC(=O)C(O)CO)nc3-c3ccccc3)c(F)cc2C(F)(F)F)n1 (single isomer, unassigned) [Example 62, (S or R)-N-(6-((2,3-dihydroxypropanamido)methyl)-2-phenylpyridin-3-yl)-2-fluoro-5-(1-methyl-1H-pyrazol-3-yl)-4-(trifluoromethyl)benzamide] |
| 0.66 nM | Cn1ccc(-c2cc(C(=O)Nc3cnc(CN4CC(CO)OC4=O)nc3-c3ccccc3)c(F)cc2C(F)(F)F)n1 (single isomer, unassigned) [Example 228, (R or S)-2-fluoro-N-(2-((5-(hydroxymethyl)-2-oxooxazolidin-3-yl)methyl)-4-phenylpyrimidin-5-yl)-5-(1-methyl-1H-pyrazol-3-yl)-4-(trifluoromethyl)benzamide] |
| 0.64 nM | Cn1ccc(-c2cc(C(=O)Nc3ccc(CNC(=O)C(O)CO)nc3-c3ccccc3)c(F)cc2C(F)(F)F)n1 (single isomer, unassigned) [Example 61, (S or R)-N-(6-((2,3-dihydroxypropanamido)methyl)-2-phenylpyridin-3-yl)-2-fluoro-5-(1-methyl-1H-pyrazol-3-yl)-4-(trifluoromethyl)benzamide] |
| 0.57 nM | Cn1ccc(-c2cc(C(=O)Nc3ccc(C4CNC(=O)C4)nc3-c3ccccc3)c(F)cc2C(F)(F)F)n1 (single isomer, unassigned) [Example 198, (R or S)-2-Fluoro-5-(1-methyl-1H-pyrazol-3-yl)-N-(6-(5-oxopyrrolidin-3-yl)-2-phenylpyridin-3-yl)-4-(trifluoromethyl)benzamide] |
| 0.19 nM | Cn1ccc(-c2cc(C(=O)Nc3ccc(C4COC(=O)N4)nc3-c3ccccc3)c(F)cc2C(F)(F)F)n1 (single isomer, unassigned) [Example 196, (R or S)-2-Fluoro-5-(1-methyl-1H-pyrazol-3-yl)-N-(6-(2-oxooxazolidin-4-yl)-2-phenylpyridin-3-yl)-4-(trifluoromethyl)benzamide] |
| 0.14 nM | Cn1ccc(-c2cc(C(=O)Nc3cnc(CN4CCOC4=O)nc3-c3ccccc3)c(F)cc2C(F)(F)F)n1 (single isomer, unassigned) [Example 218] |

Reference: patent US9815846B2 (Merck Sharp & Dohme Corp., priority 2014, dated 2017)
